TGI and GI50 data for 27 molecules are collected here from PubChem BioAssay (NCI).

SMILES strings stand for the structures. “And” between values parts separate entries of the source, which are not always exact repeats. Equal entries are not always repeated.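 48-hour exposure; five concentrations; linearly interpolated endpoints. GI50: concentration for 50% inhibition of growth. TGI marks complete inhibition of growth.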

Some test systems named below: NCI-H226 lung; COLO 205 colon; DMS 273 small cell lung; HOP-18 NSCLC; SW-620 colon; KM20L2 colon; SNB-78 CNS; BT-549 breast; PC-3 prostate.
Holding throughout (assay): NCI anticancer screen, dose series, 48 h

For the molecule `Cc1ccc(C2=NO[C@@H]3C(=O)N(c4ccc(Cc5ccc(N6C(=O)[C@H]7C(c8ccc(C)cc8)=NO[C@H]7C6=O)cc5)cc4)C(=O)[C@H]23)cc1`, the TGI in the assay with NCI-H226 lung, with COLO 205 colon, in the assay on DMS 273 small cell lung, in the assay on HOP-18 NSCLC, in the assay with SW-620 colon and in the assay with KM20L2 colon was > 100 µM each time. Besides, in the assay on SNB-78 CNS, the TGI is > 100 µM.

`Cc1ccc2[nH]c(=O)c(C(C#N)c3ccccc3)nc2c1` (stereo not given): the TGI in the assay on NCI-H226 lung is > 100 µM; in the assay with COLO 205 colon, 54.8 µM; in the assay with DMS 273 small cell lung, > 100 µM; in the assay with HOP-18 NSCLC, > 100 µM; with SW-620 colon it was > 100 µM; with KM20L2 colon, 92.3 µM. In addition, the TGI with SNB-78 CNS came to 80.1 µM.

Regarding `CCC(=C(c1ccc(OCc2ccccc2)cc1)c1ccc(OCc2ccccc2)cc1)c1ccc(OC)cc1`, the TGI in the assay with NCI-H226 lung, in the assay on COLO 205 colon, with DMS 273 small cell lung, in the assay with SW-620 colon, in the assay with KM20L2 colon and in the assay on SNB-78 CNS was > 100 µM in each case.

For `COc1ccc2c(c1)[n+]([O-])c(-c1nc3ccccc3s1)c(N)[n+]2[O-]`, the TGI in the assay with NCI-H226 lung, with COLO 205 colon, in the assay with DMS 273 small cell lung, with HOP-18 NSCLC, in the assay on SW-620 colon and with KM20L2 colon was > 100 µM each time. Further, the TGI in the assay with SNB-78 CNS was > 100 µM.

Consider `CC1C2=CC=C(O2)C(C)(C)C2=CC=C(O2)C(C)(C)C2=CC=C(O2)C(C)(C)C2=CC=C1O2`, for which the TGI in the assay with NCI-H226 lung, with COLO 205 colon, in the assay on DMS 273 small cell lung, in the assay with HOP-18 NSCLC, in the assay with SW-620 colon and in the assay with KM20L2 colon was > 100 µM each time. Also, the TGI in the assay with SNB-78 CNS was > 100 µM.

Consider `O=C(O)/C(Cl)=C(\Cl)C(=O)Nc1ccccc1`, for which the TGI in the assay on NCI-H226 lung, in the assay with COLO 205 colon, in the assay on DMS 273 small cell lung, in the assay on HOP-18 NSCLC, with SW-620 colon and in the assay on KM20L2 colon was > 100 µM throughout. In the assay with SNB-78 CNS, the TGI is > 100 µM.

Consider `CSC(=S)NNC(=O)c1ccncc1`, for which the TGI is 52.6 µM in the assay with NCI-H226 lung; > 100 µM with COLO 205 colon; 46.1 µM in the assay with DMS 273 small cell lung; > 100 µM in the assay with HOP-18 NSCLC; 23.6 µM with SW-620 colon; > 100 µM in the assay with KM20L2 colon. Moreover, the TGI in the assay with SNB-78 CNS is > 100 µM.

In the case of `Nc1nc(N)c(-c2ccc(Cl)cc2)c(CCC(=O)Nc2cccc(C(F)(F)F)c2)n1`, the TGI in the assay on NCI-H226 lung, in the assay with COLO 205 colon, in the assay on DMS 273 small cell lung, with HOP-18 NSCLC, in the assay with SW-620 colon and in the assay with KM20L2 colon was > 100 µM throughout. For the same molecule, the TGI with SNB-78 CNS was > 100 µM.

Turning to `COC(=O)C1C(=O)O[C@@H](c2ccc(OC)cc2OC)C1C(=O)OC` (stereo not given in full), the TGI in the assay with NCI-H226 lung, in the assay on COLO 205 colon, in the assay with DMS 273 small cell lung, in the assay with HOP-18 NSCLC, in the assay on SW-620 colon and in the assay on KM20L2 colon was > 100 µM throughout. The TGI in the assay on SNB-78 CNS was > 100 µM.

Turning to `CC1OC(O)CC(OC(=O)c2ccccc2)C1OC(=O)c1ccccc1` (stereo not given), the TGI was 80.9 µM in the assay with COLO 205 colon; 29.5 µM in the assay on DMS 273 small cell lung; 56.8 µM with HOP-18 NSCLC; 26.7 µM with SW-620 colon; > 100 µM in the assay with KM20L2 colon.

`Cn1c2cccc3nnc4cccc(c4c32)n1C`: the TGI in the assay on NCI-H226 lung, in the assay with COLO 205 colon, in the assay on DMS 273 small cell lung, in the assay with SW-620 colon, in the assay with KM20L2 colon and in the assay with SNB-78 CNS was > 100 µM each time.

In the case of `C=CCN(N=O)C(=O)N(CCC)CCCCC(NC(C)=O)C(=O)NCc1ccccc1` (stereo not given), the TGI in the assay with NCI-H226 lung, with COLO 205 colon, in the assay with DMS 273 small cell lung, with HOP-18 NSCLC, with SW-620 colon and with KM20L2 colon was > 100 µM each time.

Consider `COC(=O)C1=CC2OC13CC1CCC3(C2=O)C1(C)C` (stereo not given), for which the TGI turned out to be 34.2 µM with NCI-H226 lung; 29.8 µM with COLO 205 colon; 24.6 µM in the assay with DMS 273 small cell lung; 24 µM in the assay on HOP-18 NSCLC; 19.4 µM in the assay with SW-620 colon; 27.1 µM in the assay with KM20L2 colon. In the assay on SNB-78 CNS, this molecule displayed a TGI of 36.5 µM.

In the case of `CCN(CC)c1ccc2c(c1)N=C1N=CC=CN1C2(c1ccc(N(C)C)cc1)c1ccc(N(C)C)cc1`, the TGI was 27.2 µM in the assay on NCI-H226 lung; 6.53 µM in the assay on COLO 205 colon; > 100 µM with DMS 273 small cell lung; 12 µM in the assay on HOP-18 NSCLC; 10.2 µM in the assay with KM20L2 colon; 39.5 µM in the assay on SNB-78 CNS.

With `COc1ccccc1NC(=O)C1=C(C)NC(C)=C(C(=O)Nc2ccccc2OC)C1c1ccccc1OC`, the TGI in the assay on NCI-H226 lung, in the assay with COLO 205 colon, with DMS 273 small cell lung, in the assay on HOP-18 NSCLC, in the assay on SW-620 colon and in the assay on KM20L2 colon was > 100 µM throughout. In the assay on SNB-78 CNS, the TGI was > 100 µM.

For the molecule `CC(=O)Nc1ccc(/C=C/C(=O)c2sc(C(N)=S)nc2C)cc1`, the TGI in the assay with NCI-H226 lung, in the assay on COLO 205 colon, with DMS 273 small cell lung, with HOP-18 NSCLC, with SW-620 colon and in the assay with KM20L2 colon was > 100 µM in each case. Moreover, the TGI in the assay with SNB-78 CNS is > 100 µM.

Regarding `CN=S(=O)(C[C@]1(O)CC2OC1C1OC(C)(C)OC21)c1ccccc1` (stereo not given in full), the TGI with NCI-H226 lung, in the assay on COLO 205 colon, with DMS 273 small cell lung, with SW-620 colon, in the assay on KM20L2 colon and in the assay with SNB-78 CNS was > 100 µM each time.

As for `Cc1c(Cl)ccc2c1NC(=O)C2(O)C1Cc2ccccc2C1=O` (stereo not given), the TGI in the assay on NCI-H226 lung, with COLO 205 colon, in the assay on HOP-18 NSCLC, in the assay on SW-620 colon, in the assay with KM20L2 colon and in the assay with SNB-78 CNS was > 100 µM each time.

Regarding `COC(=O)C(=O)C(C(=O)C(=O)Nc1cc([N+](=O)[O-])ccc1[N+](=O)[O-])c1nc2ccc(C(=O)c3ccccc3)cc2[nH]c1=O` (stereo not given), the TGI in the assay on NCI-H226 lung is 89 µM; in the assay with COLO 205 colon, > 100 µM; with DMS 273 small cell lung, > 100 µM; in the assay with HOP-18 NSCLC, 95.1 µM; with SW-620 colon it was > 100 µM; in the assay on SNB-78 CNS it was 58.6 µM.

As to `CCC[CH2][Sn]([CH2]CCC)([S]C1=NCCS1)[S]C1=NCCS1`, the GI50 in the assay with NCI-H226 lung was 0.741 µM; in the assay with COLO 205 colon it was 0.331 µM; with DMS 273 small cell lung, 0.705 µM; in the assay with HOP-18 NSCLC, 1.12 µM; in the assay on SW-620 colon it was 0.145 µM; in the assay with KM20L2 colon, 1.35 µM. The GI50 with SNB-78 CNS is 0.124 µM. For the same molecule, the TGI in the assay on NCI-H226 lung came to 2.12 µM; with COLO 205 colon it was 1.5 µM; in the assay with DMS 273 small cell lung, 2.27 µM; with HOP-18 NSCLC, 2.33 µM; in the assay with SW-620 colon it was 0.441 µM; with KM20L2 colon, 2.88 µM. The molecule also returned a TGI in the assay with SNB-78 CNS of 0.946 µM.

On to `O=C(CC1(O)C(=O)Nc2c(Cl)cc(Cl)cc21)c1ccc2ccccc2c1` (stereo not given), for which the TGI is 21.6 µM in the assay on COLO 205 colon; 15.2 µM in the assay on DMS 273 small cell lung; 26.1 µM with HOP-18 NSCLC; 14.7 µM with SW-620 colon; 11.4 µM in the assay on KM20L2 colon; 36.5 µM in the assay on SNB-78 CNS.

As to `CC12CC3CC(C)(C1)CC(N=[N+]=[N-])(C3)C2`, the TGI in the assay with NCI-H226 lung, in the assay with COLO 205 colon, with DMS 273 small cell lung, with HOP-18 NSCLC, with SW-620 colon and in the assay on SNB-78 CNS was > 100 µM throughout.

As to `O=C1c2ccccc2C(=O)c2nc(-c3ccccc3)c(-c3ccccc3)nc21`, the TGI in the assay on NCI-H226 lung is > 31.6 µM; in the assay on COLO 205 colon it was > 100 µM; in the assay with DMS 273 small cell lung, > 100 µM; in the assay with HOP-18 NSCLC, > 100 µM; with SW-620 colon, > 100 µM; with KM20L2 colon, > 100 µM. Besides, in the assay on SNB-78 CNS, the TGI was > 100 µM.

Turning to `CCCCCCCCCCCC(=O)OCC1OC(n2cc(F)c(=O)[nH]c2=O)C(N)C(O)C1O` (stereo not given), the TGI in the assay with NCI-H226 lung, with COLO 205 colon, in the assay on DMS 273 small cell lung, in the assay on HOP-18 NSCLC, with SW-620 colon and in the assay with KM20L2 colon was > 100 µM throughout. Besides, the TGI in the assay with SNB-78 CNS is > 100 µM.

Take `CCOC(=O)/C=C1\Nc2ccccc2-n2nnnc21`: the TGI is > 100 µM in the assay on NCI-H226 lung; > 100 µM in the assay with COLO 205 colon; 93.5 µM in the assay with DMS 273 small cell lung; > 100 µM in the assay with HOP-18 NSCLC; 58.6 µM with SW-620 colon; > 100 µM in the assay with KM20L2 colon. For the same molecule, the TGI in the assay on SNB-78 CNS is > 100 µM.

Consider `Nc1ccn([C@@H]2C=C(CO)[C@@H](O)[C@H]2O)c(=O)n1`, for which the GI50 with NCI-H226 lung is 0.501 µM; in the assay with COLO 205 colon, 0.0295 µM; with SNB-78 CNS, 63.6 µM. For the same molecule, the TGI is 493 µM with NCI-H226 lung; 218 µM and 62.5 µM in the assay on DMS 273 small cell lung; 500 µM with HOP-18 NSCLC; 303 µM and > 625 µM in the assay on SW-620 colon; 500 µM and > 625 µM with KM20L2 colon; 113 µM in the assay on BT-549 breast. The TGI is 156 µM and > 625 µM with SNB-78 CNS; 500 µM in the assay with PC-3 prostate.

On to `CC1C(=O)N(C)C2(CO)C(=O)O[C@H](C)C12O` (stereo not given in full), for which the TGI in the assay with COLO 205 colon, in the assay with HOP-18 NSCLC and in the assay on SNB-78 CNS was > 100 µM throughout.
